Four compounds from paper PMC7382147, “An effective UFLC–MS/MS method used to study pharmacokinetics of major constituents of Fukeqianjin formula in rat plasma” (Chinese Medicine, 2020) can be followed below.

The nature of data set [1]: Long-term stability of QC samples (−20 °C for 20 days). The following applies: plasma QC. The format is physicochemical, rat. Here is the method:
(§1) Aliquots of 100 μL plasma samples were mixed with 10 μL I.S. samples (1 μg/mL, in MeOH), then added with 500 μL ACN, respectively, and vortexed for 5 min, centrifugated at 10,000 rpm for 10 min, the supernatants were transferred into clean vials and dried in a vacuum centrifugal concentrator at 1200 rpm, 37 °C. After that, 100 μL ACN was added and ultrasonic (frequency 40 kHz, power 250 W) extracted for 5 min to dissolve the dry residue, vortexed for 1 min and centrifugated at 10,000 rpm for 5 min, 1 μL of each final supernatant was injected into UFLC–MS/MS for analysis.
(§2) Six replicates of low, medium and high concentrations of quality control (QC) samples were used to verify the stabilities under different conditions including: place at room temperature for 8 h, freeze (− 20 °C) and thaw for three times, and store at − 20 °C for 20 days.

A short description of data set [2]: Pharmacokinetic study in rat plasma after oral administration of FKQJF extract (UFLC–MS/MS). The format is in vivo, Sprague-Dawley (SD) rats. The following applies: for AUC(0-inf) / AUC(0-t) / Cmax / half-life / MRT last / MRT inf / Tmax: Sprague-Dawley, oral FKQJF extract, single dose 3.2 g/kg, mean ± SD; for MRT last: read-out: MRT0→t; for MRT inf: read-out: MRT0→∞; for Tmax: read-out: Tmax. Here is the method:
as §1
An 8050 UFLC–MS/MS system equipped with LC-30A binary pump, a SIL-30AC autosampler, a SPD-M30A PDA detector, a CTO-20AC column oven, and a 8050 triple quadrupole mass spectrometer with an electrospray ionization source (ESI) was applied to detect and quantify FKQJF compounds in plasma samples. Data were acquired and processed with the software LabSolution (Ver. 5.6).
A Kinetex XB-C18 HPLC column (100 × 2.1 mm, 2.6 μm) linked with an equivalent guard column was used for chromatographic separation. The aqueous phase contained 0.2% formic acid was used as mobile phase A, and organic phase ACN as mobile phase B. The gradient elution method using in this program was: 3–5 min, 28–31% B; 5–7 min, 31–34% B; 7–9 min, 34–65% B; 9–10 min, 65–95% B; 10–11.5 min, 95% B. The flow rate of mobile phase, column temperature and autosampler temperature was 0.4 mL/min, 30 °C and 4 °C, respectively. The injection volume of each sample was set as 1 μL. The main MS spectrum parameters were set as follows: the flow rate of drying gas (N2) was 10.0 L/min; the atomized gas was 3.0 L/min and the heating gas flow rate was 10.0 L/min. The main temperatures of interface, desolvation and heat block was 300 °C, 250 °C and 400 °C, respectively. And, the interface and detector voltage were 3 kV and 1.8 kV.
Rats were divided into a blank group and a FKQJF administration group (6 rats for each), and fasted for 24 h. Each rat of the administration group was given FKQJF extract suspension at a single dose of 3.2 g FKQJF/kg body weight through oral administration in parallel. Blood samples (0.25 mL) were gathered from the orbital venous plexus of each rat, with FKQJF group gathered at 14 serial timepoints (6 rats for each) as 0.083 h, 0.16 h, 0.33 h, 0.5 h, 0.75 h, 1.0 h, 1.5 h, 2 h, 3 h, 4 h, 6 h, 8 h, 12 h and 24 h after drug administration. The blood samples were centrifugated at 6000g for 10 min to isolate plasma and stored at − 20 °C for further analysis.
Data were analyzed using the Drug and Statistics (DAS) Software version 2.0 (DAS 2.0, Mathematical Pharmacology Professional Committee of China, Shanghai, China). The non-compartmental mode was applied to obtain the following PK parameters: area under the plasma concentration–time curve from time zero to the time of last quantifiable concentration (AUC0→t) and area under the plasma concentration–time curve to time infinity (AUC0→∞), the elimination half-life (t1/2), mean retention time to last sampling time (MRT0→t) and mean retention time to infinity (MRT0→∞). The maximum plasma concentration (Cmax) and the time to maximum concentration (Tmax) were observed directly from the concentration–time (C–T) curves and measured data. All data are presented as mean ± SD.

The nature of data set [3]: Freeze–thaw stability of QC samples (−20 °C, three times). It counts as physicochemical, rat. The following applies: plasma QC, freeze (−20 °C) and thaw three times. The protocol: as §1, §2
Data set [4] in a line: Ordinary stability of QC samples (room temperature for 8 h). The format is physicochemical, rat. The following applies: plasma QC, room temperature 8 h. The protocol: as §1, §2
Where [5] appears, read: oral FKQJF extract 3.2 g/kg, post dose.

Consider `O=Cc1ccc2n1C[C@@]1(C[C@H](O)[C@@H](CO)O1)OC2` [Analyte 4, 9-epi-acortatarin A], for which the “Long-term stability Mean” value in data set [1] (spiked 50 ng/mL) was found to be 118.34%. In addition, in data set [1] (spiked 250 ng/mL), the “Long-term stability Mean” value stood at 81.20%. In addition, the “Long-term stability Mean” value in data set [1] (spiked 500 ng/mL) is recorded as 104.85%. In data set [2], this compound showed a total exposure AUC(0-inf) of 92.6 ± 21.4 ng·h/mL, an AUC(0-t) of 80.5 ± 9.64 ng·h/mL, a Cmax of 46.8 ± 6.78 ng/mL and a half-life of 2.2 ± 1.24 h. Moreover, in data set [2], the MRT last turned out to be 2.38 ± 0.24 h, the MRT inf came out at 3.25 ± 0.41 h and the Tmax is 1 ± 0.5 h. In addition, the “Freeze–thaw stability Mean” value in data set [3] (spiked 50 ng/mL) turned out to be 91.90%. The “Freeze–thaw stability Mean” value in data set [3] (spiked 250 ng/mL) is 107.25%. Further, the “Freeze–thaw stability Mean” value in data set [3] (spiked 500 ng/mL) came out at 102.81%. Besides, in data set [4] (spiked 50 ng/mL), the “Ordinary stability Mean” value is given as 108.94%. In addition, the “Ordinary stability Mean” value in data set [4] (spiked 250 ng/mL) is recorded as 116.00%. In addition, in data set [4] (spiked 500 ng/mL), the “Ordinary stability Mean” value is recorded as 84.20%.

Consider `C=C1CC[C@@H]2[C@](C)(CO[C@@H]3O[C@H](CO)[C@@H](O)[C@H](O)[C@H]3O)CCC[C@@]2(C)[C@@H]1CCC1=CCOC1=O` [Analyte 5, neoandrographolide], for which the “Long-term stability Mean” value in data set [1] (spiked 60 ng/mL) stood at 113.28%. For the same compound, the “Long-term stability Mean” value in data set [1] (spiked 300 ng/mL) is listed as 97.44%. In addition, the “Long-term stability Mean” value in data set [1] (spiked 600 ng/mL) is 82.61%. Further, in data set [2], the area under the curve AUC(0-inf) turned out to be 505 ± 109 ng·h/mL, the exposure AUC(0-t) is 344 ± 43.1 ng·h/mL, the peak level (Cmax) was 104 ± 14.9 ng/mL and the half-life was 3.89 ± 0.85 h. Besides, in data set [2], the MRT last was determined as 3.51 ± 0.24 h, the MRT inf turned out to be 7.55 ± 1.93 h and the time of peak concentration (Tmax) stood at 1 ± 0.43 h. For the same compound, the “shape of the plasma concentration–time curve” value (“shape” for short) in data set [2] (oral FKQJF extract 3.2 g/kg) was “double-peaks”. Besides, in data set [2] (setting [5]), the “time of first peak of the concentration–time curve” value was 0 to 1 h and the “time of second peak of the concentration–time curve” value was in the range of 1.5 to 3 h. Moreover, the “Freeze–thaw stability Mean” value in data set [3] (spiked 60 ng/mL) turned out to be 109.12%. Also, in data set [3] (spiked 300 ng/mL), the “Freeze–thaw stability Mean” value is 80.22%. Also, in data set [3] (spiked 600 ng/mL), the “Freeze–thaw stability Mean” value came out at 113.31%. Also, the “Ordinary stability Mean” value in data set [4] (spiked 60 ng/mL) amounted to 81.32%. Also, the “Ordinary stability Mean” value in data set [4] (spiked 300 ng/mL) was found to be 103.80%. Besides, the “Ordinary stability Mean” value in data set [4] (spiked 600 ng/mL) is listed as 94.88%.

As to `COc1cc(/C=C/C(=O)O)ccc1O` [Analyte 6, trans-ferulic acid], the “Long-term stability Mean” value in data set [1] (spiked 60 ng/mL) was 83.07%. Also, the “Long-term stability Mean” value in data set [1] (spiked 300 ng/mL) was found to be 91.27%. In addition, the “Long-term stability Mean” value in data set [1] (spiked 600 ng/mL) was determined as 102.00%. Besides, in data set [2], the area under the curve AUC(0-inf) is 1010 ± 558 ng·h/mL, the AUC(0-t) came to 466 ± 51.9 ng·h/mL, the concentration peaked (Cmax) at 79.8 ± 9.43 ng/mL and the half-life was 10.5 ± 6.63 h. Further, in data set [2], the MRT last came to 9.19 ± 1 h, the MRT inf was determined as 13.9 ± 9.49 h and the time of peak concentration (Tmax) amounted to 0.08 h. Moreover, the “shape” value in data set [2] (oral FKQJF extract 3.2 g/kg) is recorded as “double-peaks”. In addition, the “Freeze–thaw stability Mean” value in data set [3] (spiked 60 ng/mL) is 115.63%. For the same compound, in data set [3] (spiked 300 ng/mL), the “Freeze–thaw stability Mean” value is given as 102.20%. The “Freeze–thaw stability Mean” value in data set [3] (spiked 600 ng/mL) amounted to 88.33%. Further, the “Ordinary stability Mean” value in data set [4] (spiked 60 ng/mL) is 88.22%. Further, in data set [4] (spiked 300 ng/mL), the “Ordinary stability Mean” value is given as 109.93%. Further, the “Ordinary stability Mean” value in data set [4] (spiked 600 ng/mL) is on record as 91.44%.

For `O=c1c(-c2ccc(O)cc2)coc2cc(O[C@@H]3O[C@H](CO)[C@@H](O)[C@H](O)[C@H]3O)cc(O)c12` [Analyte 7, genistin], the “Long-term stability Mean” value in data set [1] (spiked 50 ng/mL) was 118.09%. Further, the “Long-term stability Mean” value in data set [1] (spiked 250 ng/mL) is recorded as 104.72%. The “Long-term stability Mean” value in data set [1] (spiked 500 ng/mL) was 97.81%. In data set [2], this compound had an AUC(0-inf) of 550 ± 70.7 ng·h/mL, an AUC(0-t) of 468 ± 48.4 ng·h/mL, a peak concentration (Cmax) of 87.7 ± 26.6 ng/mL and a half-life of 7.68 ± 3.01 h. Further, in data set [2], the MRT last is 9.04 ± 0.68 h, the MRT inf amounted to 14.2 ± 3.28 h and the Tmax was 0.17 h. In addition, the “shape” value in data set [2] (oral FKQJF extract 3.2 g/kg) is recorded as “double-peaks”. Besides, the “Freeze–thaw stability Mean” value in data set [3] (spiked 50 ng/mL) came out at 84.84%. For the same compound, the “Freeze–thaw stability Mean” value in data set [3] (spiked 250 ng/mL) amounted to 92.61%. Moreover, the “Ordinary stability Mean” value in data set [4] (spiked 50 ng/mL) is given as 93.52%. In data set [4] (spiked 250 ng/mL), the “Ordinary stability Mean” value was 84.19%.
